# Test results as given in US9856245B2, “GPR40 agonists for the treatment of type II diabetes” (Janssen Pharmaceutica NV, priority 2015, dated 2018).
# pEC50: −log10 of the molar value. Where “and” joins values, the source holds several entries; their conditions need not be identical. Equal entries are not always repeated.
# Biological target: T1, human GPR40 (Homo sapiens, UniProt O14842)
# T1 construct: expressed in transfected cells
# Experiment: GPR40 calcium flux assay (hGPR40 Ca2+ Assay)
# Format: cell-based
# Settings: transfected HEK293 cells stably expressing human GPR40; Fluo 8 calcium dye; multiple values = repeated testing; read-out: hGPR40 Ca^2+ Assay EC50
# Procedure: Compounds were tested in a calcium flux assay using transfected HEK293 cells stably expressing either human GPR40 or rat GPR40. Human GPR40 expressing cells were cultured in DMEM-High Glucose media supplemented with 10% fetal bovine serum, 1× L-Glutamine, 1× Penicillin/Streptomycin and 500 μg/mL G418. Rat GPR40 expressing cells were cultured in DMEM-High Glucose media supplemented with 10% fetal bovine serum and 1 μg/mL puromycin. Cells were plated into poly-D-lysine coated 384-well plates and cultured overnight in a 37° C. humidified tissue culture incubator under 5% CO2/[…] atmosphere. On the day of the experiment, the culture media was replaced with assay buffer (HBSS, 20 mM HEPES, 0.1% BSA) and the cells incubated at 37° C. for 1 h. Calcium-sensitive fluorescent dye (Fluo 8 No-Wash Calcium Dye, ABD Bioquest) was then added and the cells incubated for another 30 min at 37° C. followed by 15 min at room temperature while protected from the light. The cell plate and a plate of diluted compounds of Formula (III) were loaded into a fluorescent plate reader that added compounds onto the cells while measuring the fluorescence intensity of each well. The plate reader recorded fluorescence intensity at 1 second intervals for 8 min and provided the data for analysis in an Excel format. EC50 values were calculated using Prism (GraphPad) software.
# T1 sequence (O14842 whole entry): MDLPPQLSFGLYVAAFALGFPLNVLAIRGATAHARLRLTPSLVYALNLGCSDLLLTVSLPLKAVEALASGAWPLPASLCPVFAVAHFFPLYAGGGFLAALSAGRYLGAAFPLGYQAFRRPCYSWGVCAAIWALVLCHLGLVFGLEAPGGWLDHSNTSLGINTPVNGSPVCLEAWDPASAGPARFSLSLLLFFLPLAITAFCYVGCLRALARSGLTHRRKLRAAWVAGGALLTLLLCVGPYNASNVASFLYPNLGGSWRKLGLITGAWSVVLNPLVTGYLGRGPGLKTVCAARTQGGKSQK
row,pEC50,Compound
1,8.00 and 8.05,"COc1ccc(F)c(-n2nnc(COc3cccc([C@@H](CC(=O)O)C4CC4)c3)c2-c2ccc(C(C)(C)C)s2)c1 [Cpd 92, (3S)-3-[3-[[5-(5-tert-butyl-2-thienyl)-1-(2-fluoro-5-methoxy-phenyl)triazol-4-yl]methoxy]phenyl]-3-cyclopropyl-propanoic acid]"
2,6.87 and 6.88,"COc1ccc(F)c(-n2cnc(COc3cccc([C@@H](CC(=O)O)C4CC4)c3)c2CC(C)C)c1 [Cpd 93, (3S)-3-cyclopropyl-3-[3-[[1-(2-fluoro-5-methoxy-phenyl)-5-isobutyl-imidazol-4-yl]methoxy]phenyl]propanoic acid]"
3,6.92 and 7.22,"COc1ccc(F)c(-n2ncc(COc3cccc([C@@H](CC(=O)O)C4CC4)c3)c2-c2ccc(C)s2)c1 [Cpd 94, (3S)-3-cyclopropyl-3-[3-[[1-(2-fluoro-5-methoxy-phenyl)-5-(5-methyl-2-thienyl)pyrazol-4-yl]methoxy]phenyl]propanoic acid]"
4,7.19 and 7.26,"COc1ccc(F)c(-n2ncc(COc3cccc([C@@H](CC(=O)O)C4CC4)c3)c2-c2ccc(F)cc2F)c1 [Cpd 95, (3S)-3-cyclopropyl-3-[3-[[5-(2,4-difluorophenyl)-1-(2-fluoro-5-methoxy-phenyl)pyrazol-4-yl]methoxy]phenyl]propanoic acid]"
5,7.60 and 7.64,"COc1ccc(F)c(-n2ncc(COc3cccc([C@@H](CC(=O)O)C4CC4)c3)c2-c2cc(C)cc(C)c2)c1 [Cpd 96, (3S)-3-cyclopropyl-3-[3-[[5-(3,5-dimethylphenyl)-1-(2-fluoro-5-methoxy-phenyl)pyrazol-4-yl]methoxy]phenyl]propanoic acid]"
6,7.89 and 8.10,"COc1ccc(F)c(-n2nnc(COc3cccc([C@@H](CC(=O)O)C4CC4)c3)c2OC2CCCCC2)c1 [Cpd 97, (3S)-3-[3-[[5-(cyclohexoxy)-1-(2-fluoro-5-methoxy-phenyl)triazol-4-yl]methoxy]phenyl]-3-cyclopropyl-propanoic acid]"
7,7.33 and 7.44,"COc1ccc(F)c(-n2nnc(COc3cccc([C@@H](CC(=O)O)C4CC4)c3)c2OC(C)C)c1 [Cpd 98, (3S)-3-cyclopropyl-3-[3-[[1-(2-fluoro-5-methoxy-phenyl)-5-isopropoxy-triazol-4-yl]methoxy]phenyl]propanoic acid]"
